Measured values from US20150197492A1, “NOVEL INDENO[1,2-c]QUINOLIN-11-ONE DERIVATIVES, PREPARATION METHOD AND APPLICATION THEREOF” (National Defense Medical Center, priority 2014, published 2015).

What was measured:
Test in all cases: cells
Format in all cases: cell-based
SK-MEL-5 = system: SK-MEL-5
UACC-257 = system: UACC-257
OVCAR-5 = system: OVCAR-5
OVCAR-8 = system: OVCAR-8
NCI/ADR-RES = system: NCI/ADR-RES
786-0 = system: 786-0
ACHN = system: ACHN
CAKI-1 = system: CAKI-1
RXF 393 = RXF 393 (Renal Cancer), 10 μM, 48 hours
SN12C = system: SN12C
UO-31 = system: UO-31
DU-145 = system: DU-145
MCF7 = system: MCF7
T-47D = system: T-47D

Which TGI (SK-MEL-5; Melanoma SK-MEL-5) does the source give for CCN(CC)CCNc1nc2ccccc2c2c1-c1ccc(Cl)cc1C2=O [SJ-3, 6-(2-(Diethylamino)ethylamino)-9-chloro-11H-indeno[1,2-c]quinolin-11-one] here?
The TGI was 2.61 µM.

What about the growth percentage (SK-MEL-5; SK-MEL-5 (Melanoma), 10 μM, 48 hours) of the same compound?
Its growth percentage is 82.51%.

And the GI50 (UACC-257; Homo sapiens, Melanoma UACC-257)?
The GI50 was 21.2 µM.

What about the CC50 (UACC-257; Homo sapiens, Melanoma UACC-257, read-out: LC50 (the source's name)) of the same compound?
Its CC50 is 6.37 µM.

What about the TGI (UACC-257; Melanoma UACC-257) of the same compound?
Its TGI is 3.39 µM.

What about the growth percentage (UACC-257; UACC-257 (Melanoma), 10 μM, 48 hours) of the same compound?
Its growth percentage is 92.18%.

What about the GI50 (OVCAR-5; Homo sapiens, Ovarian Cancer OVCAR-5) of the same compound?
The GI50 was 21.5 µM.

What about the CC50 (OVCAR-5; Homo sapiens, Ovarian Cancer OVCAR-5, read-out: LC50 (the source's name)) of the same compound?
The CC50 was 6.52 µM.

And the growth percentage (OVCAR-5; OVCAR-5 (Ovarian Cancer), 10 μM, 48 hours)?
Its growth percentage is 89.34%.

And the TGI (OVCAR-5; Ovarian Cancer OVCAR-5)?
Its TGI is 3.32 µM.

And the GI50 (OVCAR-8; Homo sapiens, Ovarian Cancer OVCAR-8)?
Its GI50 is 13.8 µM.

And the CC50 (OVCAR-8; Homo sapiens, Ovarian Cancer OVCAR-8, read-out: LC50 (the source's name))?
Its CC50 is 7.76 µM.

And the growth percentage (OVCAR-8; OVCAR-8 (Ovarian Cancer), 10 μM, 48 hours)?
Its growth percentage is 61.36%.

And the TGI (OVCAR-8; Ovarian Cancer OVCAR-8)?
Its TGI is 3.63 µM.

What about the GI50 (NCI/ADR-RES; Homo sapiens, Ovarian Cancer NCI/ADR-RES) of the same compound?
The GI50 was 19.3 µM.

What about the CC50 (NCI/ADR-RES; Homo sapiens, Ovarian Cancer NCI/ADR-RES, read-out: LC50 (the source's name)) of the same compound?
The CC50 was 7.41 µM.

What about the growth percentage (NCI/ADR-RES; NCI/ADR-RES (Ovarian Cancer), 10 μM, 48 hours) of the same compound?
The growth percentage was 69.55%.

What about the TGI (NCI/ADR-RES; Ovarian Cancer NCI/ADR-RES) of the same compound?
Its TGI is 3.67 µM.

And the growth percentage (786-0; 786-0 (Renal Cancer), 10 μM, 48 hours)?
Its growth percentage is 74.13%.

What about the GI50 (786-0; Homo sapiens, 786-0, Renal Cancer 786-O) of the same compound?
Its GI50 is 26.8 µM.

And the CC50 (786-0; Homo sapiens, 786-0, Renal Cancer 786-O, read-out: LC50 (the source's name))?
Its CC50 is 6.01 µM.

And the TGI (786-0; Renal Cancer 786-O)?
Its TGI is 3.29 µM.

What about the growth percentage (ACHN; ACHN (Renal Cancer), 10 μM, 48 hours) of the same compound?
The growth percentage was 55.86%.

And the GI50 (ACHN; Homo sapiens, Renal Cancer ACHN)?
The GI50 was 6.44 µM.

And the CC50 (ACHN; Homo sapiens, Renal Cancer ACHN, read-out: LC50 (the source's name))?
Its CC50 is 5.89 µM.

And the TGI (ACHN; Renal Cancer ACHN)?
Its TGI is 3.04 µM.

What about the growth percentage (CAKI-1; CAKI-1 (Renal Cancer), 10 μM, 48 hours) of the same compound?
Its growth percentage is 64.35%.

And the GI50 (CAKI-1; Homo sapiens, Renal Cancer CAKI-1)?
Its GI50 is 14.8 µM.

What about the CC50 (CAKI-1; Homo sapiens, Renal Cancer CAKI-1, read-out: LC50 (the source's name)) of the same compound?
The CC50 was 6.8 µM.

What about the TGI (CAKI-1; Renal Cancer CAKI-1) of the same compound?
The TGI was 3.26 µM.

What about the growth percentage (RXF 393) of the same compound?
Its growth percentage is 51.90%.

And the GI50 (SN12C; Homo sapiens, Renal Cancer SN12C)?
Its GI50 is 4.12 µM.

What about the CC50 (SN12C; Homo sapiens, Renal Cancer SN12C, read-out: LC50 (the source's name)) of the same compound?
Its CC50 is 6.16 µM.

What about the TGI (SN12C; Renal Cancer SN12C) of the same compound?
The TGI was 2.87 µM.

What about the growth percentage (SN12C; SN12C (Renal Cancer), 10 μM, 48 hours) of the same compound?
The growth percentage was 61.60%.

And the GI50 (UO-31; Homo sapiens, Renal Cancer UO-31)?
Its GI50 is 3.61 µM.

What about the CC50 (UO-31; Homo sapiens, Renal Cancer UO-31, read-out: LC50 (the source's name)) of the same compound?
Its CC50 is 6.48 µM.

What about the TGI (UO-31; Renal Cancer UO-31) of the same compound?
The TGI was 2.88 µM.

What about the growth percentage (UO-31; UO-31 (Renal Cancer), 10 μM, 48 hours) of the same compound?
The growth percentage was 25.86%.

And the growth percentage (DU-145; DU-145 (Prostate Cancer), 10 μM, 48 hours)?
The growth percentage was 65.48%.

And the GI50 (DU-145; Homo sapiens, Prostate Cancer DU-145)?
Its GI50 is 18.8 µM.

And the CC50 (DU-145; Homo sapiens, Prostate Cancer DU-145, read-out: LC50 (the source's name))?
Its CC50 is 5.43 µM.

What about the TGI (DU-145; Prostate Cancer DU-145) of the same compound?
The TGI was 2.94 µM.

And the TGI (MCF7; Breast Cancer MCF7)?
The TGI was 2.60 µM.

And the GI50 (MCF7; Homo sapiens, Breast Cancer MCF7)?
Its GI50 is 0.44 µM.

And the CC50 (MCF7; Homo sapiens, Breast Cancer MCF7, read-out: LC50 (the source's name))?
Its CC50 is 5.54 µM.

What about the growth percentage (MCF7; MCF7 (Breast Cancer), 10 μM, 48 hours) of the same compound?
The growth percentage was 12.70%.

And the TGI (T-47D; Breast Cancer T-47D)?
Its TGI is 3.56 µM.

And the GI50 (T-47D; Homo sapiens, T47D, Breast Cancer T-47D)?
The GI50 was 17.8 µM.

And the CC50 (T-47D; Homo sapiens, T47D, Breast Cancer T-47D, read-out: LC50 (the source's name))?
Its CC50 is 7.19 µM.

And the growth percentage (T-47D; T-47D (Breast Cancer), 10 μM, 48 hours)?
The growth percentage was 43.28%.
